Data: patent publication US10227331B2 (priority 2015, dated 2019)

Tests used:
[1] = test system: P. aeruginosa expressing IMP-1, efflux− (MB9799); experiment: Efflux: concentration of MBL inhibitor which restores susceptibility to imipenem; assay type: cell-based, Pseudomonas aeruginosa; details: imipenem at 2 μg/mL, in the presence of a class A, C, D serine β-lactamase inhibitor closely related to relebactam
Excerpt: (§1) The strain background is Pseudomonas aeruginosa PAO1.

[2] = test system: Serratia marcescens expressing IMP-1 (CL5741); assay type: cell-based; details: with imipenem 1 μg/ml; 95% inhibition of bacterial growth
In short: (§2)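 Colonies from overnight 35 °C blood-agar cultures were suspended in saline, diluted 1:100 into 1.1× CAMHB and exposed to test compound with or without imipenem at 1 μg/ml. After 22–24 h at 35 °C, absorbance was read to find the concentration restoring imipenem susceptibility.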

[3] = test system: Escherichia coli expressing NDM-1 (CLB30005, CLB30016); assay type: cell-based; details: with imipenem 1 μg/ml; 95% inhibition of bacterial growth
In short: as §2

[4] = test system: Klebsiella pneumoniae expressing VIM-1 (IHMA599644); assay type: cell-based; details: with imipenem 1 μg/ml; 95% inhibition of bacterial growth
In short: as §2

[5] = test system: P. aeruginosa expressing IMP-1, efflux+ (MB9798); assay type: cell-based, Pseudomonas aeruginosa; details: for P. aeruginosa expressing IMP-1, efflux+ (MB9798) MITC95: imipenem at 2 μg/mL, in the presence of a class A, C, D serine β-lactamase inhibitor closely related to relebactam; for Efflux ratio: ratio MITC95 PA_9798/MITC95 PA_9799
Excerpt: as §1

VIM-1 = VIM-1 (Pseudomonas aeruginosa (strain ATCC 15692 / DSM 22644 / CIP 104116 / JCM 14847 / LMG 12228 / 1C / PRS 101 / PAO1), UniProt A0A0F7KYQ8); experiment: biochemical; details: CCF2-FA substrate, 2 hours at 25° C
In short: (§3)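 Inhibitor was mixed with the metallo-β-lactamase and CCF2-FA. After 2 hours at 25° C, fluorescence of the coumarin–fluorescein cephalosporin substrate was read. IC50 was calculated with a 4-parameter fit.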

NDM-1 = NDM-1 (Klebsiella pneumoniae, UniProt C7C422); experiment: biochemical; assay type: biochemical; details: CCF2-FA substrate, 2 hours at 25° C; read-out: NDM-1 IC50
In short: as §3

IMP-1 = IMP-1 (Serratia marcescens, UniProt P52699); experiment: biochemical; assay type: biochemical; details: CCF2-FA substrate, 2 hours at 25° C; read-out: IMP-1 IC50
In short: as §3

Chain of IMP-1 (P52699 whole entry, looked up, species assumed): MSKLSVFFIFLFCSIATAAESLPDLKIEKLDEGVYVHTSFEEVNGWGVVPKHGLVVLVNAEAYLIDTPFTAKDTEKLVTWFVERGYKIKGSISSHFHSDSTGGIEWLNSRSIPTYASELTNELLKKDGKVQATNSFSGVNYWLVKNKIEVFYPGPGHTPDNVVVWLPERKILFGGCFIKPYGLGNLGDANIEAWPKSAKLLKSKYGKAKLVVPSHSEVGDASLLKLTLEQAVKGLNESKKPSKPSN
Chain of NDM-1 (C7C422 whole entry, looked up, species assumed): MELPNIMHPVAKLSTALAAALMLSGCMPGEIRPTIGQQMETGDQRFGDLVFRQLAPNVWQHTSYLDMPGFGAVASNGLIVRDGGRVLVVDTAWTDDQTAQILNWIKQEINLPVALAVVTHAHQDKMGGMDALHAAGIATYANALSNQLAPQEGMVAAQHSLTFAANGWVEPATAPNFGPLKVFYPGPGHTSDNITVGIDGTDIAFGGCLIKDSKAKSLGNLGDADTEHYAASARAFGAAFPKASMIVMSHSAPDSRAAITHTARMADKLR

SMILES | P. aeruginosa expressing IMP-1, efflux− (MB9799) MITC95 [1] [µM] | Serratia marcescens expressing IMP-1 (CL5741) MITC95 [2] [µM] | Escherichia coli expressing NDM-1 (CLB30016) MITC95 [3] [µM] | Klebsiella pneumoniae expressing VIM-1 (IHMA599644) MITC95 [4] [µM] | P. aeruginosa expressing IMP-1, efflux+ (MB9798) MITC95 [5] [µM] | Efflux ratio [5] | IC50 (VIM-1) [nM] | IC50 (NDM-1) [nM] | IC50 (IMP-1) [nM]
Nc1nc2c(-c3ccc(S(=O)(=O)C4CN(CCO)C4)c(S(N)(=O)=O)c3-c3nn[nH]n3)cccc2[nH]1 [Example 53, 3-(2-amino-1H-benzo[d]imidazol-4-yl)-6-(1-(2-hydroxyethyl)azetidin-3-ylsulfonyl)-2-(2H-tetrazol-5-yl)benzenesulfonamide] | 6.25 | 6.25 | 12.5 | 12.5 | 12.5 | 2.00 | 1.54 | 0.458 | 6.12
CC(=O)N1CC(S(=O)(=O)c2ccc(-c3cccc4nc(N)[nH]c34)c(-c3nn[nH]n3)c2S(N)(=O)=O)C1 [Example 54, 6-(1-acetylazetidin-3-ylsulfonyl)-3-(2-amino-3H-benzo[d]imidazol-4-yl)-2-(2H-tetrazol-5-yl)benzenesulfonamide] | 3.125 | 6.25 | 6.25 | 12.5 | 50 | 16.00 | 0.435 | 0.178 | 2.38
CS(=O)(=O)N1CC(S(=O)(=O)c2ccc(-c3cccc4[nH]c(N)nc34)c(-c3nn[nH]n3)c2S(N)(=O)=O)C1 [Example 55, 3-(2-amino-1H-benzo[d]imidazol-4-yl)-6-(1-(methylsulfonyl)azetidin-3-ylsulfonyl)-2-(2H-tetrazol-5-yl)benzenesulfonamide] | 1.563 | 3.125 | 3.125 | 6.25 | 50 | 31.99 | 0.312 | 0.0818 | 1.42
NC(=O)N1CC(S(=O)(=O)c2ccc(-c3cccc4[nH]c(N)nc34)c(-c3nn[nH]n3)c2S(N)(=O)=O)C1 [Example 56, 3-(4-(2-amino-1H-benzo[d]imidazol-4-yl)-2-sulfamoyl-3-(2H-tetrazol-5-yl)phenylsulfonyl)azetidine-1-carboxamide] | 3.125 | 3.125 | 6.25 | 6.25 | 3.125 | 1.00 | 0.35 | 0.18 | 2.82
CCOC(=O)N1CC(S(=O)(=O)c2ccc(-c3cccc4[nH]c(N)nc34)c(-c3nn[nH]n3)c2S(N)(=O)=O)C1 [Example 57, ethyl 3-(4-(2-amino-1H-benzo[d]imidazol-4-yl)-2-sulfamoyl-3-(2H-tetrazol-5-yl)phenylsulfonyl)azetidine-1-carboxylate] | 3.125 | 6.25 | 6.25 | 12.5 | 200 | 64.00 | 0.446 | 0.264 | 1.98
NS(=O)(=O)c1c(S(=O)(=O)C2CNC2)ccc(-c2cccn3ccnc23)c1-c1nnn[nH]1 [Example 58, 6-(Azetidin-3-ylsulfonyl)-3-(imidazo[1,2-a]pyridin-8-yl)-2-(1H-tetrazol-5-yl)benzenesulfonamide] | 1.563 | 1.563 | 0.7813 | 3.125 | 1.563 | 1.00 | 0.342 | 0.378 | 0.597
